Source: patent publication US20030129180A1, “Products and methods for treating microbial infections” (The Proctor & Gamble Company, priority 2001, published 2003)

How the values were obtained:
[1] = system: T. mentagrophytes; assay: Relative growth of pre-germinated arthrospores in ESD broth tubes; format: cell-based; parameters: key: −: - (no growth); relative scale from - (no growth) to +++ (maximal growth); relative scale from - (no growth) to +++ (maximal growth); +++ (maximal growth); details: clotrimazole control, 20 μ/ml per tube, 26° C.
Experimental: (§1) Purified arthrospore suspensions of T. mentagrophytes or T. rubrum (prepared as per L. R. Wright et al., 1983, J. Antimicrob. Chemotherapy 12:317-327), diluted to a concentration of 1×10^6 cfu/ml in Emmon's modification of Sabouraud Dextrose Broth (ESD—R. Atlas, 1997, Handbook of microbiological media, CRC Press Inc., Boca Raton, Fla.), are incubated for 6 hours at 26° C. or 30° C., respectively, to pre-germinate spores. Enzyme preparations of chitinase (Sigma Cat. No. C-1525) and β1-1,3-glucanase (Sigma Cat. No. L-2524) are diluted into 3 ml volumes of ESD in capped glass tubes, to final concentrations of each enzyme ranging from 0 to 100 ppm. Clotrimazole controls are also prepared, to a final concentration of 20 μ/ml per tube.
(§2) Each tube is then inoculated with 10 μl (1×10^4 cfu) of either the T. mentagrophytes or T. rubrum pre-germinated arthrospore suspension, followed by incubation on a shaker at 200 rpm, at 26° C. or 30° C., respectively, for a total of 41 hours.

[2] = system: T. rubrum; assay: as above; format: cell-based; parameters: key: −: - (no growth); relative scale from - (no growth) to +++ (maximal growth); relative scale from - (no growth) to +++ (maximal growth); +++ (maximal growth); details: clotrimazole control, 20 μ/ml per tube, 30° C.
Experimental: as §1, §2

Clc1ccccc1C(c1ccccc1)(c1ccccc1)n1ccnc1 [clotrimazole]
−: Growth, T. mentagrophytes, 18 hours ([1]; 18 hours) | Growth, T. mentagrophytes, 41 hours ([1]; 41 hours) | Growth, T. rubrum, 18 hours ([2]; 18 hours) | Growth, T. rubrum, 41 hours ([2]; 41 hours)
